# Source: EPA's ToxRefDB 2
# Legend:
# [1] = test system: rat; conditions: Prenatal developmental toxicity study, sprague dawley, Oral, Gavage/Intubation, dose end: 15 GD
# [2] = test system: rabbit; conditions: Prenatal developmental toxicity study, new zealand white, Oral, Gavage/Intubation, dose end: 19 GD
# [3] = test system: rat; conditions: Prenatal developmental toxicity study, sprague dawley, Oral, Gavage/Intubation, dose end: 15 GD; remark: listed apart in the source
# [4] = test system: mouse; conditions: Sub-acute repeat dose toxicity, b6c3f1, Oral, Gavage/Intubation, dose end: 14 day, group: systemic
# [5] = test system: rat; conditions: Sub-acute dermal toxicity, sprague dawley, Topical, dose end: 28 day, group: systemic
# [6] = test system: rat; conditions: Subchronic oral toxicity in rodents, fischer, Gavage/Intubation, dose end: 13 week, group: systemic
# [7] = test system: rat; conditions: Sub-acute repeat dose toxicity, fischer, Oral, Gavage/Intubation, dose end: 14 day, group: systemic
# [8] = test system: rat; conditions: Multigenerational reproductive toxicity study; sprague dawley; Oral; Gavage/Intubation; dose end: 2 generation; group: parental; systemic / organ weight / liver / nos
# [9] = test system: mouse; conditions: Subchronic oral toxicity in rodents, b6c3f1, Gavage/Intubation, dose end: 13 week, group: systemic
# [10] = group: developmental, systemic / in life observation / body weight / fetal weight
# [11] = group: maternal, systemic / in life observation / body weight / body weight gain + systemic / in life observation / food consumption / food consumption
# [12] = group: maternal, systemic / in life observation / body weight / body weight gain + systemic / in life observation / food consumption / food consumption + …
# [13] = group: developmental, developmental / developmental malformation / bone / absent + developmental / developmental malformation / bone / malpositioned + …
# [14] = group: developmental, developmental / developmental malformation / bone / supernumerary + systemic / in life observation / body weight / fetal weight
# [15] = group: maternal, systemic / in life observation / clinical signs / body surface staining + systemic / in life observation / clinical signs / salivation + …
# [16] = systemic / in life observation / body weight / body weight
# [17] = systemic / in life observation / body weight / body weight + systemic / in life observation / clinical signs / fur (altered appearance) + …
# [18] = systemic / in life observation / body weight / body weight gain + systemic / in life observation / clinical signs / erythema + systemic / in…
# [19] = systemic / in life observation / clinical signs / erythema + systemic / pathology microscopic / skin / edema + systemic / in life …
# [20] = systemic / in life observation / body weight / body weight + systemic / in life observation / clinical signs / defecation (diarrhea)
# [21] = systemic / pathology microscopic / liver / degeneration
# [22] = systemic / pathology microscopic / liver / degeneration + systemic / in life observation / body weight / body weight + systemic / in life …
structure (smiles),measurement,setting,value
O=S(=O)([O-])[O-].OC[P+](CO)(CO)CO.OC[P+](CO)(CO)CO [Tetrakis(hydroxymethyl)phosphonium sulfate],LEL,[1]; [10],60 mg/kg/day
same,LOAEL,[1]; [10],60 mg/kg/day
same,NEL,[1]; [10],30 mg/kg/day
same,NOAEL,[1]; [10],30 mg/kg/day
same,LEL,[1]; [11],60 mg/kg/day
same,LOAEL,[1]; [11],60 mg/kg/day
same,NEL,[1]; [12],30 mg/kg/day
same,NOAEL,[1]; [12],30 mg/kg/day
same,LEL,[2]; [13],60 mg/kg/day
same,LOAEL,[2]; [13],60 mg/kg/day
same,NEL,[2]; [13],18 mg/kg/day
same,NOAEL,[2]; [13],18 mg/kg/day
same,LOAEL,[2]; [11],60 mg/kg/day
same,LEL,[2]; [12],60 mg/kg/day
same,NEL,[2]; [12],18 mg/kg/day
same,NOAEL,[2]; [12],18 mg/kg/day
same,LEL,[3]; [14],60 mg/kg/day
same,LOAEL,[3]; [14],60 mg/kg/day
same,NEL,[3]; [14],30 mg/kg/day
same,NOAEL,[3]; [14],30 mg/kg/day
same,LEL,[3]; [15],30 mg/kg/day
same,LOAEL,[3]; [15],30 mg/kg/day
same,NEL,[3]; [15],15 mg/kg/day
same,NOAEL,[3]; [15],15 mg/kg/day
same,LEL,[4]; [16],25 mg/kg/day
same,LOAEL,[4]; [16],50 mg/kg/day
same,NEL,[4]; [17],12.5 mg/kg/day
same,NOAEL,[4]; [17],25 mg/kg/day
same,LOAEL,[5]; [18],> 500 mg/kg/day
same,NOAEL,[5]; [18],≥ 500 mg/kg/day
same,LEL,[5]; [19],25 mg/kg/day
same,NEL,[5]; [19],< 25 mg/kg/day
same,LEL,[6]; [20],5 mg/kg/day
same,NEL,[6]; [20],< 5 mg/kg/day
same,NOAEL,[6]; systemic / in life observation / body weight / body weight + systemic / in life observation / clinical signs / defecation (diarrhea) + …,20 mg/kg/day
same,LOAEL,[6]; systemic / in life observation / body weight / body weight + systemic / pathology microscopic / liver / degeneration,40 mg/kg/day
same,LOAEL,[7]; systemic / in life observation / body weight / body weight + systemic / in life observation / body weight / body weight gain,25 mg/kg/day
same,NOAEL,[7]; systemic / in life observation / body weight / body weight + systemic / in life observation / body weight / body weight gain + systemic / in…,12.5 mg/kg/day
same,LEL,[7]; systemic / in life observation / body weight / body weight gain,25 mg/kg/day
same,NEL,[7]; systemic / in life observation / body weight / body weight gain + systemic / in life observation / mortality / mortality,12.5 mg/kg/day
same,LEL,[8],15 mg/kg/day
same,LOAEL,[8],> 15 mg/kg/day
same,NEL,[8],7.5 mg/kg/day
same,NOAEL,[8],≥ 15 mg/kg/day
same,LEL,[9]; [21],20 mg/kg/day
same,LOAEL,[9]; [21],20 mg/kg/day
same,NEL,[9]; [22],10 mg/kg/day
same,NOAEL,[9]; [22],10 mg/kg/day
